As usually defined, the EC50 is the concentration needed to bring the measured effect to its halfway point.

This note sets out measurements from patent US12486254B2, “Uracil derivatives for stimulating read-through of premature termination codons” (Southern Research Institute, priority 2022, dated 2025).

In this test the test system is W134X-CF#14 FRT. Description: Read-through of a premature termination codon, W134X-CF#14 FRT data, with G418. Format: cell-based. The conditions noted are these: in presence of G418. As for the experimental part:
The compounds shown in Table 1 were evaluated for their ability to stimulate read-through of a premature termination codon, and their respective activities are shown in Tables 2 and 3 below.

Bounds are passed on as bounds.

For `CCn1c(=O)c(C(=O)CN(C)CC(N)=O)c(N)n(Cc2ccccc2)c1=O` [1.41], the EC50 was determined as 157 µM. As to `CCn1c(=O)c(C(=O)CN2CCCC[C@@H]2C(=O)NCc2ccc(F)cc2)c(N)n(Cc2ccc(F)cc2)c1=O` [1.189], the EC50 was 2.56 µM. In the case of `CC(C)N(CC(N)=O)CC(=O)c1c(N)n(Cc2cccs2)c(=O)n(Cc2cccs2)c1=O` [1.100], the EC50 was 16.5 µM. Take `CC(C)Cn1c(=O)c(C(=O)CN2CCCCC2C(N)=O)c(N)n(Cc2ccccc2)c1=O` (centres unmarked) [1.75]: the EC50 was 28 µM. Take `CCn1c(=O)c(C(=O)CN2CCCC2C(=O)N2CCCCC2)c(N)n(Cc2ccccc2)c1=O` (centres unmarked) [1.122]: the 50% effective concentration (EC50) is 30.4 µM. On to `CCn1c(=O)c(C(=O)CN2CCCCC2C)c(N)n(Cc2ccc(F)cc2)c1=O` (centres unmarked) [1.200], for which the half-maximal effective concentration (EC50) is 34.9 µM. In the case of `CCn1c(=O)c(C(=O)CN2CCCC[C@@H]2C(=O)NCc2ccc(F)cc2)c(N)n(Cc2ccccc2)c1=O` [1.155], the 50% effective concentration (EC50) was determined as 3.16 µM.

`CCn1c(=O)c(C(=O)CN2CCCCC2C(=O)NC(C)C)c(N)n(Cc2ccccc2)c1=O` (centres unmarked) [1.70]: the EC50 amounted to 27.9 µM.

Take `CCN(CC)C(=O)C1CCCCN1CC(=O)c1c(N)n(Cc2ccccc2)c(=O)n(CC)c1=O` (centres unmarked) [1.81]: the EC50 stood at 3.92 µM. In the case of `CCn1c(=O)c(C(=O)CN2CCCC[C@@H]2C(=O)NCc2cccc(F)c2)c(N)n(Cc2ccccc2)c1=O` [1.144], the half-maximal effective concentration (EC50) is 9.35 µM. With `CCn1c(=O)c(C(=O)CN2CCC[C@@H]2C(N)=O)c(N)n(Cc2ccccc2)c1=O` [1.34], the EC50 was found to be 53 µM. As for `Cc1ccccc1Cn1c(N)c(C(=O)CN2CCCCC2C(N)=O)c(=O)n(Cc2ccccc2C)c1=O` (centres unmarked) [1.108], the EC50 was found to be 25 µM. Under `CCn1c(=O)c(C(=O)CN2CCCC2C(=O)N2CCOCC2)c(N)n(Cc2ccccc2)c1=O` (centres unmarked) [1.121] stands 61.3 µM; under `CCn1c(=O)c(C(=O)CN2CCCC[C@@H]2C(=O)NCC(F)(F)F)c(N)n(Cc2ccc(F)cc2)c1=O` [1.197], 3.91 µM; under `CCn1c(=O)c(C(=O)CN(CC(N)=O)C(C)C)c(N)n(Cc2cccs2)c1=O` [1.111], 5.19 µM.

Turning to `CCn1c(=O)c(C(=O)CN2CCCCC2C(=O)OC)c(N)n(Cc2ccccc2)c1=O` (centres unmarked) [1.68], the concentration giving a half-maximal response (EC50) came out at 19.7 µM. As for `Cn1c(=O)c(C(=O)CN2CCN(c3ccccc3F)CC2)c(N)n(Cc2ccccc2)c1=O` [1.43], the concentration giving a half-maximal response (EC50) was 49.3 µM. Consider `CCOc1ccc(C(C)NCC(=O)c2c(N)n(Cc3ccc(F)cc3)c(=O)n(CC)c2=O)cc1OCC` (centres unmarked) [1.179], for which the concentration giving a half-maximal response (EC50) turned out to be 10.1 µM.

As to `NC(=O)C1CCCCN1CC(=O)c1c(N)n(Cc2ccccc2)c(=O)n(C2CC2)c1=O` (centres unmarked) [1.45], the concentration for a half-maximal effect (EC50) is ≥ 100 µM.

`NC(=O)C1CCCCN1CC(=O)c1c(N)n(Cc2cccc(F)c2)c(=O)n(Cc2cccc(F)c2)c1=O` (centres unmarked) [1.95]: the EC50 was 21.1 µM.

For the compound `CCn1c(=O)c(C(=O)CN2CCCCC2C2CCC2)c(N)n(Cc2ccc(F)cc2)c1=O` (centres unmarked) [1.210], the EC50 is 6.68 µM. Take `CCn1c(=O)c(C(=O)CN2CCCCC2C(N)=O)c(N)n(Cc2ccc(F)cc2F)c1=O` (centres unmarked) [1.146]: the EC50 is 8.5 µM. The result for `Cc1cccc(Cn2c(N)c(C(=O)CN3CCCCC3C(N)=O)c(=O)n(Cc3cccc(C)c3)c2=O)c1` (centres unmarked) [1.109] reads 7.47 µM; that for `NC(=O)C1CCCCN1CC(=O)c1c(N)n(C2CC2)c(=O)n(Cc2ccccc2)c1=O` (centres unmarked) [1.46], ≥ 100 µM. Under `CCNC(=O)C1CCCCN1CC(=O)c1c(N)n(Cc2ccccc2)c(=O)n(CC)c1=O` (centres unmarked) [1.80] stands 3.89 µM. As to `CCn1c(=O)c(C(=O)CN2CCCC[C@@H]2C(=O)N2CCc3ccccc3C2)c(N)n(Cc2ccccc2)c1=O` [1.143], the half-maximal effective concentration (EC50) was found to be 6.48 µM. As for `CCn1c(=O)c(C(=O)CN2CCCC[C@@H]2C(N)=O)c(N)n(Cc2ccc(C(F)(F)F)cc2)c1=O` [1.178], the concentration giving a half-maximal response (EC50) was found to be 21.2 µM. On to `CCn1c(=O)c(C(=O)CN(CC(N)=O)C(C)(C)C)c(N)n(Cc2ccccc2)c1=O` [1.32], for which the concentration for a half-maximal effect (EC50) turned out to be 72.3 µM. Consider `CCn1c(=O)c(C(=O)CN2CCCC2C(=O)NCc2ccccc2)c(N)n(Cc2ccccc2)c1=O` (centres unmarked) [1.124], for which the 50% effective concentration (EC50) was 24.1 µM.
